What is called IC50 is the midpoint of a concentration-inhibition curve.

The values that follow come from patent US9539222B2, “Methods to inhibit intracellular growth of bacteria and to treat bacteria-mediated diseases” (priority 2012, dated 2017).

The subject of series [1] is H37Rv strain of Mycobacterium tuberculosis (MTB). In kind it is cell-based.
For a further series, the system named is Mycobacterium bovis BCG. The class given is cell-based. To be noted: for difference from control (untreated infected cells) in mROS and BCG survival: THP1 cells or hMDM infected with BCG, 2 mM MET, 10 mM NAC or GSH, 24 hrs; for effect of ROS scavenger on Metformin-induced inhibition of growth of intracellular BCG: infected THP1 cells, 2 mM Metformin, 10 mM scavenger.

For series [2], the system named is reactive oxygen species (ROS). The class given is cell-based, human.
Another series relates to mycobacterial phagosomes. The class given is cell-based, human.
Series [3] deals with Mycobacterium tuberculosis (MTB). The series can be described thus: Acute infection model of MTB in C57BL/6 mice, lung and spleen bacillary load (CFU). In kind it is in vivo.
For series [4] the following is noted: mice; cited from earlier work.
A further series relates to BCG. The series can be described thus: microbe, parasite or virus in culture. To be noted: for IC50: Mycobacterium tuberculosis variant bovis BCG, BCG, read-out: IC50 in MIC assay. In kind it is cell-based, Mycobacterium bovis BCG.
[5] abbreviates: 50 mg/Kg oral, 2-4 weeks of treatment.

Where two headings read alike, the source gives them in different places. A value given as a limit tells only on which side of the number the result lay.

`N[C@@H](CCC(=O)N[C@@H](CS)C(=O)NCC(=O)O)C(=O)O` [GSH, glutathione]: the “difference from control in MTB survival (CFU)” value in series [1] was “not significant”. Further, in the series on Mycobacterium bovis BCG, the “difference from control (untreated infected cells) in mROS and BCG survival” value was “not significant”; the “effect of ROS scavenger on Metformin-induced inhibition of growth of intracellular BCG” value is “abolishment”.
For `CN(C)C(=N)NC(=N)N.Cl` [Metformin, N,N-dimethyl imidodicarbonimidic diamide hydrochloride], the “dose dependence of inhibition of intracellular MTB” value in series [1] is “dose-dependent inhibition”. Besides, the “time in which inhibition of mycobacterial growth occurred” value with Mycobacterium bovis BCG (BCG-infected THP1 cells, 2 mM, no further reduction at later time points) was at most 24 h. Also, the “dose dependence of inhibition of intracellular mycobacteria” value in the series with Mycobacterium bovis BCG (BCG-infected THP1 cells, CFU at 24 hrs) is reported as “dose-dependent inhibition”. Also, in series [2], the “mROS, time- and dose-dependent change” value is “increased significantly”; the “production of cytoplasmic ROS (cROS), CM-H2DCFDA” value was “but not of cytoplasmic ROS (cROS)”; the “production of mitochondrial ROS (mROS), MitoSox” value is given as “increased”.
For the compound `CC(=O)N[C@@H](CS)C(=O)O` [NAC, N-acetylcysteine], the “difference from control in MTB survival (CFU)” value in series [1] ([…], 2 mM MET, 10 mM NAC or GSH, 24 hrs) is reported as “not significant”. Further, in the series with Mycobacterium bovis BCG, the “difference from control (untreated infected cells) in mROS and BCG survival” value is “not significant”; the “effect of ROS scavenger on Metformin-induced inhibition of growth of intracellular BCG” value is given as “abolishment”. Further, in the series on mycobacterial phagosomes, the “effect on Metformin-induced phagosomal acidification” value is reported as “prevented”.
As to `Oc1ccc(/C=C/c2cc(O)cc(O)c2)cc1` [Resveratrol, 3,5,4′-trihydroxy-trans-stilbene], in series [3] (25 mg/Kg RES alone, oral), the “bacilli load in the lung compared to controls” value is “did not reduce”. In addition, in series [3] (setting [5]), the “CFU in the lung compared to control” value is given as “less CFU” and the “CFU in the spleen compared to control” value was “less CFU”. In addition, the “Oral LD50” value in series [4] is about 2000 mg/kg.
Take `CCCCc1oc2ccccc2c1C(=O)c1cc(I)c(OCCN(CC)CC)c(I)c1` [amiodarone, (2-{4-[(2-butyl-1-benzofuran-3-yl)carbonyl]-2,6-diiodophenoxy}ethyl)diethylamine]: the “direct anti-mycobacterial activity in MIC assay” value in the series with BCG (in vitro BCG growth) is “showed inhibition of mycobacterial growth”.
For `CO[C@H]1C[C@@H]2CC[C@@H](C)[C@@](O)(O2)C(=O)C(=O)N2CCCC[C@H]2C(=O)O[C@H]([C@H](C)C[C@@H]2CC[C@@H](O)[C@H](OC)C2)CC(=O)[C@H](C)/C=C(\C)[C@@H](O)[C@@H](OC)C(=O)[C@H](C)C[C@H](C)/C=C/C=C/C=C/1C` [rapamycin], the IC50 with BCG is about 13.8 µM.
`C=C(C)[C@H]1Cc2c(ccc3c2O[C@@H]2COc4cc(OC)c(OC)cc4[C@@H]2C3=O)O1` [rotenone]: in series [2], the “production of cytoplasmic ROS (cROS), CM-H2DCFDA” value is given as “upregulated” and the “production of mitochondrial ROS (mROS), MitoSox” value is listed as “upregulated”.
As for `CNC1C(OC2C(OC3C(O)C(O)C(NC(=N)N)C(O)C3NC(=N)N)OC(C)C2(O)C=O)OC(CO)C(O)C1O` (stereo not shown) [streptomycin, 5-(2,4-diguanidino-3,5,6-trihydroxy-cyclohexoxy)-4-[4,5-dihydroxy-6-(hydroxymethyl)-3-methylamino-tetrahydropyran-2-yl]oxy-3-hydroxy-2-methyl-tetrahydrofuran-3-carbaldehyde], the IC50 with BCG is about 0.2 µM.
